# Test results published in patent US7517857B2, “Immune-modulating peptide” (POSCO, priority 2002, dated 2009).
# Where a SMILES comes first, the peptide text is derived from it. Where no end group is shown, it is not given here. [ ]: non-standard residue; d: D form.
# Assays:
# FPRL1 = target: T1, FPRL1 (Homo sapiens, UniProt P25090); test: Chemotaxis of FPRL1-expressing RBL-2H3 cells (modified Boyden chamber); assay type: cell-based; conditions: FPRL1-expressing RBL-2H3 cells; various concentrations
# T1 construct: expressed in transfected cells; host or cells: RBL-2H3 (rat basophilic leukemia) cells, G418-selected
# T1 sequence (P25090 1-351): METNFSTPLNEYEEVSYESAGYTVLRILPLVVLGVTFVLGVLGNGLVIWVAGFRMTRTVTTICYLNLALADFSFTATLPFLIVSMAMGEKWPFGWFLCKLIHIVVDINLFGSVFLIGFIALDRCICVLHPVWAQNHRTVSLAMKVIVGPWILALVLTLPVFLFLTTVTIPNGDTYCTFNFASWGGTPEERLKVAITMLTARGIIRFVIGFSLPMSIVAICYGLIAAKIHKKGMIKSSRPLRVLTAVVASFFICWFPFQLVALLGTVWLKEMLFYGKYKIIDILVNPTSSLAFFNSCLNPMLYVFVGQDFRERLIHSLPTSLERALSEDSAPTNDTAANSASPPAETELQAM
# Experimental: Chemotaxis assays were performed using multiwell chambers (modified Boyden chamber assay) (Neuroprobe Inc., Gaithersburg, Md.) (18). Briefly, polycarbonate filters (8 μm pore size) were precoated with 50 μg/ml of rat type I collagen (Collaborative Biomedicals) in a HEPES-buffered RPMI 1640 medium. A dry coated filter was placed on a 96-well chamber containing different concentrations of peptides. RBL-2H3 cells expressing FPR or FPRL1 were suspended in RPMI at a concentration of 1×10^6 cells/ml of serum-free RPMI, and 25 μl of the suspension were placed onto the upper well of the 96-well chemotaxis chamber. After incubation for 4 hours at 37° C., non-migrated cells were removed by scraping them out, and cells that migrated across the filter were dehydrated, fixed, and stained with hematoxylin (Sigma, St. Louis, Mo.). The stained cells in five randomly chosen high power fields (HPF) (400×) in that well were then counted. […] The numbers of migrated cells were determined by counting them in a high power field (400×). The Data are presented as means ±SE of three independent experiments each performed in duplicate. The effect of the peptides of the present invention on cellular chemotaxis in FPR- or FPRL1-expressing RBL-2H3 cells was measured. Various concentrations of each peptide were used for the chemotaxis assay with FPR- or FPRL1-expressing RBL-2H3 cells. The numbers of migrated cells were determined by counting them in a high power field (400×). The Data are presented as means ±SE of two independent experiments each performed in duplicates.
# FPR = target: T2, FPR (Homo sapiens, UniProt P21462); test: ERK phosphorylation in FPR-expressing RBL-2H3 cells (immunoblot); assay type: cell-based; conditions: for ERKs phosphorylation/activation: 10 μM peptides 2 min (WKYMVm time course 1 μM)
# T2 construct: expressed in transfected cells; host or cells: RBL-2H3 (rat basophilic leukemia) cells, G418-selected
# T2 sequence (P21462 1-350): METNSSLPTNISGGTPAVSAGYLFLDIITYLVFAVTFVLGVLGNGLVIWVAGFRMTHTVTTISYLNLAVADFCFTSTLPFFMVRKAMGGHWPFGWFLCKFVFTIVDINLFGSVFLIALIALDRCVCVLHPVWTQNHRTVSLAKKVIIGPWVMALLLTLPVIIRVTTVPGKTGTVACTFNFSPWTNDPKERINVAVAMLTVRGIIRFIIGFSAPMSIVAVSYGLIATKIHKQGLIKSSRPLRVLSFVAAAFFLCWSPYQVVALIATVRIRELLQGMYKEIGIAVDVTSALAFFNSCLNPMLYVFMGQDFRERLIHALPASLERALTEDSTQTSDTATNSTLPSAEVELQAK
# Experimental: Cultured RBL-2H3 cells were aliquoted into 2×10^6 cells and stimulated with the indicated concentrations of WKYMVm and the peptides of the present invention for the indicated lengths of time. FPR- or FPRL1-expressing RBL-2H3 cells were stimulated with 1 μM WKYMVm for various periods of time (FIG. 3A). Two cells were preincubated with a vehicle or 100 ng/ml of PTX (24 hr), 50 μM of LY294002 (15 min), 5 μM of GFX (15 min), 10 μM BAPTA/AM (60 min), or 50 μM PD98059 (60 min) prior to 1 μM of WKYMVm treatment (FIG. 3B). FPR- or FPRL1-expressing RBL2H3 cells were stimulated with 10 μM of the peptides of the present invention for 2 min or 5 min, respectively (FIG. 3C).
# After stimulation, the cells were washed with serum-free RPMI and lysed in a lysis buffer (20 mM Hepes, pH 7.2, 10% glycerol, 150 mM NaCl, 1% Triton X-100, 50 mM NaF, 1 mM Na3VO4, 10 μg/ml leupeptin, 10 μg/ml aprotinin, and 1 mM phenylmethylsulfonyl fluoride). The detergent-insoluble materials were pelleted by centrifugation (12,000×g, 15 min, at 4° C.), and the soluble supernatant fraction was removed and stored at −80° C. or used immediately. Protein concentrations in the lysates were determined using the Bradford protein assay reagent.
# Each sample ([…] of protein) was subjected to 10% SDS-PAGE and phosphorylated ERK was determined by an immunoblot analysis with an anti-phospho-ERK antibody. Protein samples were prepared for electrophoresis by addition of a concentrated sample buffer. The portions in the samples were then separated by an 10% SDS-polyacrylamide gel using the buffer system described by Laemmli (17).
# Following the electrophoresis, a western blot analysis with an anti-ERK2 antibody was performed to confirm that the same amounts of samples were used for the experiments. The proteins were blotted onto nitrocellulose membranes. The nitrocellulose membranes were then blocked by incubation with TBS (Tris-buffered saline, 0.05% Tween-20) containing 5% non-fat dry milk. Subsequently, the membranes were incubated with anti-phospho-ERK antibody, anti-phospho-Akt antibody or anti-Akt antibody washed with TBS. For a PKC translocation assay, an antibody for PKC isozyme-specific was incubated. Antigen-antibody complexes were visualized after incubating the membrane with a 1:5000 diluted goat anti-rabbit IgG or goat anti-mouse IgG antibody coupled to horseradish peroxidase and using the enhanced chemiluminescence detection system.
Molecule,cellular chemotaxis (FPRL1),ERKs phosphorylation/activation (FPR),time of maximal ERKs activity after peptide treatment (FPR; 1 μM WKYMVm)
"CSCC[C@H](NC(=O)CNC(=O)[C@H](CCCCN)NC(=O)[C@@H](N)Cc1c[nH]c2ccccc12)C(=O)N[C@H](C(=O)N[C@H](CCSC)C(N)=O)C(C)C [WKGMVm-NH2, Trp-Lys-Gly-Met-Val-D-Met-NH2] (H-WKGMV[dM]-NH2; N-terminus assumed)",induced cellular chemotaxis showing concentration-dependency,stimulated ERKs phosphorylation,
"CSCC[C@H](NC(=O)[C@H](CCCNC(=N)N)NC(=O)[C@H](CCCCN)NC(=O)[C@@H](N)Cc1c[nH]c2ccccc12)C(=O)N[C@H](C(=O)N[C@H](CCSC)C(N)=O)C(C)C [WKRMVm-NH2, Trp-Lys-Arg-Met-Val-D-Met-NH2] (H-WKRMV[dM]-NH2; N-terminus assumed)",induced cellular chemotaxis showing concentration-dependency,stimulated ERKs phosphorylation,
"CSCC[C@H](NC(=O)[C@H](Cc1ccc(O)cc1)NC(=O)[C@H](CCCCN)NC(=O)[C@@H](N)Cc1c[nH]c2ccccc12)C(=O)N[C@H](C(=O)N[C@H](CCSC)C(N)=O)C(C)C [WKYMVm-NH2, Trp-Lys-Tyr-Met-Val-D-Met-NH2, reference compound]",induced cellular chemotaxis showing concentration-dependency,induced transient activation of ERKs,2 min
"WKYMVE-NH2 [WKYMVE-NH2, Trp-Lys-Tyr-Met-Val-Glu-NH2]",induced cellular chemotaxis showing concentration-dependency,stimulated ERKs phosphorylation,
"WKYMVR-NH2 [WKYMVR-NH2, Trp-Lys-Tyr-Met-Val-Arg-NH2]",induced cellular chemotaxis showing concentration-dependency,stimulated ERKs phosphorylation,
